{"source": "paper PMC3229523", "about": "“Identification of Lactoferricin B Intracellular Targets Using an Escherichia coli Proteome Chip” (PLoS ONE, 2011)", "key": {"pyruvate in E. coli": {"test_system": "pyruvate in E. coli", "experiment": "Pyruvate assay: pyruvate level in E. coli (OD570)", "assay_type": "cell-based, E. coli MG1655", "settings": "32 µM LfcinB", "source_text": "To confirm one of the mechanisms of LfcinB action in pyruvate metabolism, a minimal medium was chosen; because general LB medium contains many carbon sources, including sugars, alcohols and organic acids, this minimal medium allowed glucose to be the sole carbon source in the pyruvate assays. Minimal medium consisted of 6 g/l NaH2PO4, 3 g/l K2HPO4, 0.5 g/l NaCl, 0.12 g/l MgSO4, 1 g/l NH4Cl, 0.01 g/l CaCl2 and 5 g/l glucose. A 0.22 µm filter (Millex®GS, Millipore) was used to filter the minimal medium. E. coli MG1655 was first inoculated into the minimal medium and incubated at 37°C for 16 h with shaking as a preculture. The preculture was diluted 100-fold with the minimal medium in 96-well plate, and 32 µM of LfcinB were added. The mixture was incubated with shaking in a microplate reader at 37°C, and the absorbance was measured after 9 h. Finally, the mixture was harvested by centrifugation at 3452 g for 5 min at 4°C, and each supernatant was removed. The pellets were then stored at −80°C.\nTo extract the pyruvate in E. coli, hot water extraction was used, a procedure adapted from Canelas et al.. Boiling water was poured into the pellet and it was immediately vortexed. The mixture was then placed in a water bath at 95–100°C for 15 min and cooled on ice. […] Finally, the OD570 of the mixtures was measured by a microplate reader to detect the color intensity."}, "[1]": {"test_system": "isogenic parent strain and the knockout strains", "experiment": "Knockout assay, isogenic parent and knockout strains together", "assay_type": "cell-based, E. coli K-12", "settings": "32 µM LfcinB, LB medium, 37°C", "method": "(§1) The E. coli K-12 BW25113 (isogenic parent) strain and the 16 knockout strains were obtained from the E. coli Genetic Resources at the Coli Genetic Stock Center (CGSC) at Yale University. The strains were inoculated into LB medium, and incubated at 37°C with shaking. After 16 h of incubation, the cultures were diluted to approximately 10^7 CFU/ml with LB medium. Thirty-two µM of LfcinB were then added to the cultures in a 96-well plate. PBS was used as a negative control. Cultures with LfcinB or PBS were then incubated at 37°C with shaking in a microplate reader and the growth was observed by measuring the OD595 value every 20 min for 7 h 20 min."}, "E. coli K-12 MG1655": {"test_system": "E. coli K-12 MG1655", "experiment": "E. coli growth inhibition (growth curves, OD595)", "assay_type": "cell-based", "settings": "22.4 µM, approx. 10^7 CFU/ml, LB medium, 37°C with shaking, OD595 every 20 min for 7 h 20 min, PBS negative control, Figure 2", "method": "The E. coli K-12 MG1655 strain was first inoculated into LB medium and incubated at 37°C with shaking for 16 h. After incubation, the culture was diluted to approximately 10^7 CFU/ml using LB medium. Then, 22.4 µM of N-terminal biotinylated LfcinB (Kelowna Inc.), LfcinB (Kelowna Inc.) or biotin (Thermo) were individually added to the diluted cultures in a 96-well plate. PBS was used as a negative control. Finally, each compound or PBS with E. coli was incubated at 37°C with shaking and the growth curves were observed by measuring the OD595 value every 20 min for 7 h 20 min in a microplate reader (Synergy 2, BioTek®)."}, "YdaU": {"test_system": "YdaU", "experiment": "Fluorescence polarization assay, YdaU", "assay_type": "binding, E. coli", "settings": "100 nM DyLight 549-labeled LfcinB; protein 0.025-0.4 µM; data not shown", "source_text": "(§2) FP assays, investigations of the binding between two molecules in a homogeneous aqueous environment, were used to validate the identified 153 proteins. […] If a fluorophore only binds to a small molecule, such as peptide, the rotation of the complex is fast and the light emits in a different plane of polarization. Therefore, the degree of polarization is low. However, once a fluorophore binds to a large molecule, the bound complex is stimulated with polarized light. The light emits in the same polarized plane, and the complex is maintained in the same plane of polarization, causing an increase in the degree of polarization [22]–[24]. The amount of molecules binding to a fluorophore influences the degree of polarization. In this study, LfcinB was labeled with DyLight™ 549 as a reference value. Once the protein bound to LfcinB, like a fluorophore binds to a large molecule, a high degree of polarization is expected.\n(§3) Before the assays, LfcinB was labeled with DyLight™ 549 and tested proteins were quantified with a Pierce® bicinchoninic acid (BCA™) protein assay (Thermo). To label the LfcinB, DyLight™ 549-NHS ester and LfcinB (68∶1, mole/mole) were mixed in PBS at room temperature for 1 h, a D-Salt™ polyacrylamide desalting column (Thermo) was used to remove excess dye and the labeling efficiency of the eluted solution was calculated. […]"}, "GldA": {"test_system": "GldA", "experiment": "Fluorescence polarization assay, GldA", "assay_type": "binding, E. coli", "settings": "100 nM DyLight 549-labeled LfcinB; protein 0.025-0.4 µM; data not shown", "source_text": "as §2, §3"}, "nrdF knockout mutant": {"test_system": "nrdF knockout mutant", "experiment": "Knockout assay, nrdF knockout mutant", "assay_type": "cell-based, E. coli K-12", "settings": "32 µM LfcinB, LB medium, 37°C", "method": "as §1"}, "[2]": {"test_system": "other 15 knockout strains", "experiment": "Knockout assay, other 15 knockout strains", "assay_type": "cell-based, E. coli K-12", "settings": "32 µM LfcinB, LB medium, 37°C", "method": "as §1"}}, "note": "Entries after “also recorded” stand apart in the source; their conditions may differ. Ends that are not written are not given here. * marks the point of attachment. Biotin = O=C1N[C@H]2[C@H](CS[C@H]2CCCCC(=O)*)N1"}
{"substance": "Lactoferricin B (Biotin-FKCRRWQWRMKKLGAPSITCVRRAF; ends and bridges not checked) [LfcinB]", "values": [{"measurement": "pyruvate (OD570) level after 9 h with vs without LfcinB", "setting": "pyruvate in E. coli; minimal medium", "result": "accumulation of pyruvate; also recorded: higher than the level in E. coli without LfcinB"}, {"measurement": "Value of pyruvate (OD570) after 9 h incubation", "setting": "pyruvate in E. coli; minimal medium with glucose, 37°C, hot water extraction, pyruvate assay kit, E. coli without LfcinB 1.976±0.084", "result": "2.526±0.338"}, {"measurement": "growth curves, initial part (0–1.5 h), with vs without LfcinB", "setting": "[1]; 0–1.5 h", "result": "higher growth curves than the strains grown without LfcinB"}, {"measurement": "slopes of growth curves, middle part (2–4 h), with vs without LfcinB", "setting": "[1]; 2–4 h", "result": "lower than the slopes of the strains without LfcinB"}, {"measurement": "growth curves / inhibition of E. coli growth", "setting": "E. coli K-12 MG1655", "result": "exhibited the same inhibition of E. coli growth; also recorded: exhibit the same antibacterial activity"}, {"measurement": "binding to YdaU", "setting": "YdaU", "result": "confirmed to bind to LfcinB"}, {"measurement": "binding to GldA", "setting": "GldA", "result": "confirmed to bind to LfcinB"}, {"measurement": "growth curve with vs without LfcinB", "setting": "nrdF knockout mutant", "result": "significant inhibited"}, {"measurement": "growth with LfcinB", "setting": "[2]", "result": "the growth was inhibited by LfcinB"}]}
